Data as given in PMC7939445, “Exploitation of dihydroorotate dehydrogenase (DHODH) and p53 activation as therapeutic targets: A case study in polypharmacology” (The Journal of Biological Chemistry, 2021).
Where two headings read alike, the source gives them in different places.

Columns and labels:
ARN8 cells [1] = assay: SRB assay in ARN8 cells with nucleotide supplementation; format: cell-based, human; conditions: 72 h, 100 μM uridine, 1 mM DHO or 1 mM OA
Protocol: Cells were seeded in a 96-well plate at a density of 500 cells/well (ARN8) in a volume of 100 μl of fully supplemented growth medium and incubated as described above for 24 h. SKNSH p53 WT pCMV neo cells were seeded at 7500 cells/well in 100 μl of fully supplemented growth medium and incubated as described above for 24 h. SKNSH ddp53 cells were seeded at a density of 6000 cells/well in 100 μl of fully supplemented growth medium and incubated as described above for 24 h. Cells were checked for adherence and treated with tenovins in DMSO supplemented with 100 μM uridine, 1 mM DHO, or 1 mM OA. The final percentage of DMSO per well was <0.2%. Cells were incubated for 72 h with compounds. Following incubation, medium was removed from the cells and replaced by 150 μl of 1× sterile PBS and 50 μl of 40% (w/v) TCA (Sigma–Aldrich #T9159) in distilled H2O and incubated at 4 °C for 1 h to fix the cells. The plate was then washed with three changes of water with all liquid allowed to drain from the plate. 50 μl of 0.4% (w/v) sulforhodamine B (Sigma–Aldrich #230162) with 1% (v/v) acetic acid (Sigma–Aldrich #320099) in H2O was added to each well and incubated for 30 min. Excess dye was washed out with three changes of 1% (v/v) acetic acid in H2O. The remaining dye was solubilized in 100 μl of 10 mM unbuffered Tris-base (Sigma–Aldrich #93362) per well, and absorbance was read at 490 nm on a spectrophotometer.

ARN8 cells [2] = assay: Propidium iodide flow cytometry (cell cycle); format: cell-based, human; conditions: 48 h; for Effect on cell cycle distribution / cell death: 10 μM tenovins 1 and 33 or 200 nM brequinar; for Effect of uridine or OA on the compound's cell cycle effect: 10 μM, 100 μM uridine or 1 mM OA, not with DHO
Protocol: ARN8 cells were seeded at 30,000 per well, respectively, in 6-well plates and incubated for 24 h. All compounds were diluted to 10× stocks in fully supplemented growth medium. Cells were incubated with the compounds for 48 h. Cell culture medium was removed and placed into Falcon tubes. Wells were washed twice with 1× PBS with the washes saved in the Falcon tubes to harvest floating dead cells. Cells remaining in the wells were trypsinized with 200 μl of 1× trypsin/EDTA (Sigma–Aldrich #T4174). Following detachment, fresh growth medium was added to each well, and the contents were removed and placed in the relevant tubes. Any remaining cells in the plate were then gathered by washing twice with 2 ml of 1× PBS with the washes saved and added to the relevant tubes. The tubes were centrifuged at 500 × g for 5 min. Cell pellets were washed twice with 1× PBS. The pellets were resuspended in 1 ml of 1× PBS and added dropwise to 3 ml of 99.9% ethanol while vortex mixing at high speed. Cells were then fixed at –20 °C for 24 h. Following fixation, cells were pelleted at 1390 × g for 5 min. The cells were washed three times with 2 ml of 1× PBS containing 3% FBS with centrifugation at 1390 × g between washes. Cells were resuspended in 0.5 ml of PBS containing 10 μg of propidium iodide (Invitrogen #P3566) and 50 μg of RNase A (Sigma–Aldrich #R4642) and incubated on ice in the dark for 10 min. Flow cytometry was performed using a BD Biosciences FACScan or FACSCalibur with 10,000 events counted within the gating region.

recombinant human DHODH [3] = target: T1, recombinant human DHODH (Homo sapiens, UniProt Q02127); assay: DHODH enzymatic assay (kinetic, DCIP reduction); format: biochemical
T1 construct: made in house
Protocol: Enzyme assays were performed with 6 nM recombinant human DHODH prepared as described ([36]). The reaction mixture for these kinetic assays consisted of 1 mM DHO, 100 μM 2,3-dimethoxy-5-methyl-p-benzoquinone (Sigma–Aldrich #D9150), and 100 μM 2,6-dichlorophenolindophenol sodium salt (DCIP; Sigma–Aldrich #D1878) in enzyme buffer (50 mM Tris-HCl pH 8.0, 0.1% Triton X-100, 150 mM KCl). A stock solution of 20 mM DCIP was prepared in enzyme buffer and filtered through filter paper (20−25-μm pore size) just before use. Loss in absorbance by DCIP was measured at 595 nm at room temperature in a stepped time course (8 × 2 min, 8 × 3 min, 6 × 5 min). The observed decrease in absorbance over time was linear between 8 and 26 min. Therefore, for each concentration of inhibitor tested, a value for DHODH's Vmax was estimated by linear regression within this time frame. The IC50 is defined as the concentration of inhibitor that gives Vmax([I]) = Vmax(DMSO)/2.

U2OS or ARN8 cells = assay: Uridine uptake assay ([3H]uridine, scintillation counting); format: cell-based, human; conditions: 5 μM
Protocol: 100,000 (24-h assay) or 200,000 (15-min assay) U2OS or ARN8 cells were seeded per well in 6-well plates in 2 ml of fully supplemented culture medium as described above. 24 h postseeding, medium was removed, and cells were treated with the indicated compounds for either 15 min or 24 h in 2 ml of FBS-free medium supplemented with serum replacement 3 (Sigma–Aldrich #S2640). At the end of the treatment, an extra well of each treatment was harvested in 100 μl of 1× LDS (62.5 mM Tris-HCl, pH 6.8, 10% glycerol, 1% LDS) for quantification of protein levels to determine the level of cell death after 24 h for normalization with protein concentration determined by the Bio-Rad DC protein assay (Bio-Rad #5000111). [^3H]Uridine (PerkinElmer Life Sciences #NET367001MC) was prepared in serum replacement medium to a final emission of 3.65 μCi ml^−1 and added to cells for 10 min. Following 10 min, the cells were washed with four quick changes of 1 mM unlabeled uridine prepared in ice-cold transport buffer (20 mM Tris-HCl, pH 7.4, 130 mM NaCl, 3 mM K2HPO4, 1 mM MgCl2, 5 mM glucose, 2 mM CaCl2). The samples were then harvested in 100 μl of 10% SDS. 900 μl of Optiphase Supermix (PerkinElmer Life Sciences #1200-439) was added to each sample, and the cpm were measured using a 1450 MicroBeta JET for liquid scintillation (PerkinElmer Life Sciences/Wallac).

[4] = test system: p53 transcriptional activity in ARN8 cells; assay: p53 transcriptional activation (CPRG) cell reporter assay; format: cell-based, human; conditions: 18 h, 100 μM uridine, 1 mM DHO or 1 mM OA
Protocol: ARN8 cells were seeded in a 96-well plate at a density of 20,000 cells/well in a volume of 100 μl of fully supplemented growth medium. […] Subsequently, 50 μl of 1× reporter lysis buffer (Promega #E4030) was added to each well, and the plates were stored at –20 °C for at least 2 h.

[5] = test system: p53, hdm2 and p21 in ARN8 cells; assay: Western blotting of p53 and p53 targets in ARN8 cells; format: cell-based, human; conditions: 5 μM; for Treatment time at which p53 protein levels increased: blotted at 2, 4, 6 or 8 h; for Effect of OA and uridine on p53 protein and downstream signaling (hdm2, p21): 24 h, 100 μM uridine or 1 mM OA
Protocol: 150,000 ARN8, HCT116 p53 WT, or HCT116 p53 KO cells were seeded on 6-well plates in 2 ml of fully supplemented medium as described above. […] A protein assay was conducted using the Bio-Rad DC protein analysis kit (Bio-Rad #5000111), and the protein levels were normalized between samples. […] The transfer was conducted using the Trans-Blot Turbo preset program for standard semidry transfer (30 min). All membranes were blocked in 5% milk (w/v) in PBS-T containing 0.1% Tween 20 (v/v) (Sigma–Aldrich P9416). All antibodies were made up in 5% milk (w/v) in PBS-T. All antibody incubations were either overnight at 4 °C or at room temperature for 1 h. […] All secondary antibodies were polyclonal rabbit anti-mouse antibodies conjugated to horseradish peroxidase (DAKO, Glostrup, Denmark #P0260) and diluted at concentrations of 1:2000 (v/v). […] All blots were normalized to their respective vehicle control and quantified using ImageLab where quantification was required (Bio-Rad version 5.2.1 build 11).

[6] = test system: HCT116 p53 WT and p53 KO cells; assay: IncuCyte cell confluence measurements; format: cell-based, human; conditions: HCT116 p53 WT or KO, 5 μM, confluence over 72 h
Protocol: ARN8 or HCT116 p53 WT or KO cells were seeded in a 96-well plate at a density of 4000 cells/well in a volume of 100 μl. […] The medium of the assigned wells was replaced with 100 μl of fresh medium containing a 5 μM concentration of the corresponding Tenovins or DMSO control and placed in an IncuCyte S3 system located inside a CO2 incubator.

recombinant human DHODH [7] = target: T1, recombinant human DHODH; assay: Thermal shift assay using intrinsic FMN fluorescence; format: binding; conditions: 200 μM compound, 5 μM DHODH
Protocol: 5 μM recombinant human DHODH prepared as described ([36]) was used in this assay. The assay relied upon the intrinsic fluorescence of the embedded flavin mononucleotide (FMN) within the DHODH as a proxy for unfolding of DHODH across a temperature range, much in the same manner as the thermal shift assay using SYPRO Orange ([37]). A PCR machine with a filter set with an excitation range of 475–500 nm and an emission range of 520–590 nm was used for this experiment. 5 μM DHODH was prepared with 200 μM compound with a final concentration of 0.5% DMSO in each sample in buffer consisting of 50 mM HEPES and 150 mM NaCl. The final assay volume was 10 μl. The samples were heated across a temperature range with the fluorescence emission from FMN monitored at each temperature.

[8] = 6 nM recombinant human DHODH, average of three independent repeats, read-out: DHODH inhibition (enzyme assay), IC50

T1 sequence (Q02127 whole entry): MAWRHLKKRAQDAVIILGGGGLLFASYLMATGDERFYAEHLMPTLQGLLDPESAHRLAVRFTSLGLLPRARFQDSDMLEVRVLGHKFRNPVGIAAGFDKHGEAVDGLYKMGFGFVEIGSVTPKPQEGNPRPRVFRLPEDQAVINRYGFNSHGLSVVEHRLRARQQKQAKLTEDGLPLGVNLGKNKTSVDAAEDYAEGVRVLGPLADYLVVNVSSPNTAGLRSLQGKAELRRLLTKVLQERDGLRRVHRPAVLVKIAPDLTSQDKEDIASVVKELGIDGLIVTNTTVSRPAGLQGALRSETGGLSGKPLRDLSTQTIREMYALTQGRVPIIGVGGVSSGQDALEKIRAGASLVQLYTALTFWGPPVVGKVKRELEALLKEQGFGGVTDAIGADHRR

Structure (SMILES)	Effect of supplementation on tumor cell growth inhibition (SRB) (ARN8 cells [1])	Effect on cell cycle distribution / cell death (ARN8 cells [2])	Effect of uridine or OA on the compound's cell cycle effect (ARN8 cells [2])	IC50 (recombinant human DHODH [3]; [8]) [nM]	IC50 (recombinant human DHODH [3]; enzyme assay, read-out: DHODH IC50) [nM]	Inhibition of uridine uptake after 15 min (U2OS or ARN8 cells)	Effect of supplementation on induction of p53 transcriptional activity [4]	Treatment time at which p53 protein levels increased [5] [h]	Effect of OA and uridine on p53 protein and downstream signaling (hdm2, p21) [5]	Effect on cell growth in p53 KO versus p53 WT cells [6]	Stabilization of DHODH in thermal shift assay (recombinant human DHODH [7])	Inhibition of DHODH enzyme activity (in words) (recombinant human DHODH [3]; biochemical assay)
CC(=O)Nc1ccc(NC(=S)NC(=O)c2ccc(C(C)(C)C)cc2)cc1 [Tenovin 1]	reduced upon supplementation with uridine or OA	increase in cell death	effect on the cell cycle largely prevented	113	~113	unable to alter uridine uptake	–	–	–	–	–	–
CN(C)CCCCC(=O)Nc1ccc(NC(=S)NC(=O)c2ccc(C(C)(C)C)cc2)cc1 [Tenovin 6]	no rescue of cell viability	–	–	500	–	able to inhibit uridine uptake	partially ablated	2	ablation of p53 downstream signaling	effects on cell growth ablated in the p53 KO cells	–	–
CN(C)CCCCC(=O)Nc1ccc(NC(=O)NC(=O)c2ccc(C(C)(C)C)cc2)cc1 [Tenovin 33]	reduced upon supplementation with uridine or OA	increase in the percentage of cells in S-phase	effect on the cell cycle largely prevented	> 20000	–	able to inhibit uridine uptake	completely ablated	8	ablation of p53 downstream signaling	–	nor was it able to stabilize DHODH in a thermal shift assay	incapable of inhibiting DHODH enzyme activity
Cc1c(-c2ccc(-c3ccccc3F)cc2)nc2ccc(F)cc2c1C(=O)O [brequinar, reference compound]	–	increase in the percentage of cells in S-phase	–	–	–	–	–	–	–	–	–	–
